SMILES strings stand for the structures.

This assay addresses ERα (Homo sapiens (Human), UniProt P03372). Nature of the assay: Estrogen receptor degradation activity: breast cancer cell ERα in cell western assay. As to conditions: MCF7 cells; for % Degradation At 0.3 μM: 4 hours, normalised to fulvestrant 0.1 μM and DMSO; for IC50 / DC50: 4 hours post compound addition, concentration which degrades 50% of the estrogen receptor; for DC50: read-out: Degradation IC50. The assay is classed as cell-based. How it is done:
Said test involves measuring the in vitro degradation activity of the compounds of the Table 1a.
The measurements of the degradation activities were made using a breast cancer cell ERα in cell western assay as described hereunder.
MCF7 cells (ATCC) were seeded in 384 wells microplate (collagen coated) at a concentration of 10000 cells/30 μL per well in red phenol free MEM alpha medium (invitrogen) containing 5% charcoal dextran striped FBS. The following day, 9 points serial 1:5 dilution of each compound was added to the cells in 2.5 μL at final concentrations ranging from 0.3-0.0000018 μM (in table 2), or 0.1 μM for fulvestrant (using as positive control). At 4 hours post compound addition the cells were fixed by adding 25 μL of formalin (final concentration 5% formalin containing 0.1% triton) for 10 minutes at room temperature and then washed twice with PBS. Then, 50 μL of LI-COR blocking buffer containing 0.1% Triton was added to plate for 30 minutes at room temperature. LI-COR blocking buffer was removed and cells were incubated overnight at cold room with 50 μL anti-ER rabbit monoclonal antibody (Thermo scientific MA1-39540) diluted at 1:1000 in LI-COR blocking buffer containing 0.1% tween-20. Wells which were treated with blocking buffer but no antibody were used as background control. Wells were washed twice with PBS (0.1% tween-20) and incubated at 37° C. for 60 minutes in LI-COR (0.1% tween-20) containing goat anti-rabbit antibody Alexa 488 (1:1000) and Syto-64 a DNA dye (2 μM final concentration). Cells were then washed 3 times in PBS and scanned in ACUMEN explorer (TTP-Labtech). Integrated intensities in the green fluorescence and red fluorescence were measured to determine the levels of ERα and DNA respectively.
The degradation activity with respect to estrogen receptors in this test is given by the concentration which degrades 50% of the estrogen receptor (or IC50) in nM.
The % of ERα levels decrease were determined as follows: % inhibition=100*(1−(sample−fulvestrant:DMSO−fulvestrant)).

ERα, sequence (P03372 whole entry): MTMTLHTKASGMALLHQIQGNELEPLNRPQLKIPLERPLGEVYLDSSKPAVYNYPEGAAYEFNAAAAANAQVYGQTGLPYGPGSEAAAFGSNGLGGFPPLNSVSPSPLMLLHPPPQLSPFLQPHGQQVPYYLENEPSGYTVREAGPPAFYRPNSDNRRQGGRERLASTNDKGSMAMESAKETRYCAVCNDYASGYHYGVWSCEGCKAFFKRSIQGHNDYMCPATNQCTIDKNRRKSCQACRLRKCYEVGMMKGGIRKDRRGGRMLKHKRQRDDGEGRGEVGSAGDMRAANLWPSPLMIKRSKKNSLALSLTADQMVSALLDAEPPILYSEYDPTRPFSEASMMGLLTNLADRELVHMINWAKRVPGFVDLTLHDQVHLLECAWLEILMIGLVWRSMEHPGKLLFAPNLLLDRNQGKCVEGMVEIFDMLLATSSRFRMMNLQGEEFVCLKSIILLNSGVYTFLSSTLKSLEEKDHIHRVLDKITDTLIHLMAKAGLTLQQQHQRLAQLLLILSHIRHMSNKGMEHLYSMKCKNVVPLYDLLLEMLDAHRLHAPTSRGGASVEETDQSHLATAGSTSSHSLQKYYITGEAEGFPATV

`O=C(O)c1ccc2c(c1)CCCC(c1c(F)cccc1C(F)(F)F)=C2c1ccc(C=C2CN(CCCF)C2)cc1` [Compound 20, 8-(2-fluoro-6-(trifluoromethyl)phenyl)-9-(4-((1-(3-fluoropropyl)azetidin-3-ylidene)methyl)phenyl)-6,7-dihydro-5H-benzo[7]annulene-3-carboxylic acid]: the “% Degradation At 0.3 μM” value was 94% and the IC50 (commonly the concentration at which inhibition is half-maximal) came to 0.6 nM.

Take `Cc1cccc(OC(F)(F)F)c1C1=C(c2ccc(C=C3CN(CCCF)C3)cc2)c2ccc(C(=O)O)cc2CCC1` [Compound 77, 9-(4-((1-(3-fluoropropyl)azetidin-3-ylidene)methyl)phenyl)-8-(2-methyl-6-(trifluoromethoxy)phenyl)-6,7-dihydro-5H-benzo[7]annulene-3-carboxylic acid]: the “% Degradation At 0.3 μM” value worked out at 95% and the IC50 was determined as 0.7 nM.

In the case of `CCc1c(F)cccc1C1=C(c2ccc(C=C3CN(CCCF)C3)cc2)c2ccc(C(=O)O)cc2CCC1` [Compound 39, 8-(2-ethyl-3-fluorophenyl)-9-(4-((1-(3-fluoropropyl)azetidin-3-ylidene)methyl)phenyl)-6,7-dihydro-5H-benzo[7]annulene-3-carboxylic acid], the “% Degradation At 0.3 μM” value was 92% and the midpoint of inhibition, the IC50, lay at 0.3 nM.

Take `O=C(O)c1ccc2c(c1)CCCC(c1ccc(Cl)cc1Cl)=C2c1ccc(C=C2CN(CC(F)CF)C2)cc1` (single isomer, unassigned) [Compound 69, 8-(2,4-dichlorophenyl)-9-(4-((1-(2,3-difluoropropyl)azetidin-3-ylidene)methyl)phenyl)-6,7-dihydro-5H-benzo[7]annulene-3-carboxylic acid]: the “% Degradation At 0.3 μM” value was determined as 74% and the DC50 came to 1.3 nM.

For `O=C(O)c1ccc2c(c1)CCCC(c1ccccc1CF)=C2c1ccc(C=C2CN(CCCF)C2)cc1` [Compound 32, 8-(2-(fluoromethyl)phenyl)-9-(4-((1-(3-fluoropropyl)azetidin-3-ylidene)methyl)phenyl)-6,7-dihydro-5H-benzo[7]annulene-3-carboxylic acid], the “% Degradation At 0.3 μM” value is 91% and it took 0.3 nM to reach half-maximal inhibition (IC50).

For the molecule `Cc1cc(C(F)(F)F)c(C)cc1C1=C(c2ccc(C=C3CN(CCCF)C3)cc2)c2ccc(C(=O)O)cc2CCC1` [Compound 78, 8-(2,5-dimethyl-4-(trifluoromethyl)phenyl)-9-(4-((1-(3-fluoropropyl)azetidin-3-ylidene)methyl)phenyl)-6,7-dihydro-5H-benzo[7]annulene-3-carboxylic acid], the “% Degradation At 0.3 μM” value came to 94% and it took 0.4 nM to reach half-maximal inhibition (IC50).

Take `Cc1cccc(C(F)(F)F)c1C1=C(c2ccc(C=C3CN(CCCF)C3)cc2)c2ccc(C(=O)O)cc2CCC1` [Compound 1, 9-(4-((1-(3-fluoropropyl)azetidin-3-ylidene)methyl)phenyl)-8-(2-methyl-6-(trifluoromethyl)phenyl)-6,7-dihydro-5H-benzo[7]annulene-3-carboxylic acid]: the “% Degradation At 0.3 μM” value came to 92% and 0.3 nM corresponded to half-maximal inhibition (IC50).

Consider `O=C(O)c1ccc2c(c1)CCCC(c1cccc(C(F)(F)F)c1C(F)(F)F)=C2c1ccc(C=C2CN(CCCF)C2)cc1` [Compound 79, 8-(2,3-bis(trifluoromethyl)phenyl)-9-(4-((1-(3-fluoropropyl)azetidin-3-ylidene)methyl)phenyl)-6,7-dihydro-5H-benzo[7]annulene-3-carboxylic acid], for which the “% Degradation At 0.3 μM” value is reported as 100% and the IC50 worked out at 0.4 nM.

With `CCc1ccc(C2=C(c3ccc(C=C4CN(CCCF)C4)cc3)c3ccc(C(=O)O)cc3CCC2)c(C(F)(F)F)c1` [Compound 19, 8-(4-ethyl-2-(trifluoromethyl)phenyl)-9-(4-((1-(3-fluoropropyl)azetidin-3-ylidene)methyl)phenyl)-6,7-dihydro-5H-benzo[7]annulene-3-carboxylic acid], the “% Degradation At 0.3 μM” value came to 92% and the 50% inhibitory concentration (IC50) was found to be 0.2 nM.

Consider `O=C(O)c1ccc2c(c1)CCCC(c1cccc3c1OCCC3)=C2c1ccc(C=C2CN(CCCF)C2)cc1` [Compound 67, 8-(chroman-8-yl)-9-(4-((1-(3-fluoropropyl)azetidin-3-ylidene)methyl)phenyl)-6,7-dihydro-5H-benzo[7]annulene-3-carboxylic acid], for which the “% Degradation At 0.3 μM” value came out at 90% and the IC50 was 1 nM.

Consider `C[C@H]1CC[C@@H](C2=C(c3ccc(C=C4CN(CCCF)C4)cc3)c3ccc(C(=O)O)cc3CCC2)CC1` [Compound 61, 9-(4-((1-(3-fluoropropyl)azetidin-3-ylidene)methyl)phenyl)-8-(cis-4-methylcyclohexyl)-6,7-dihydro-5H-benzo[7]annulene-3-carboxylic acid], for which the “% Degradation At 0.3 μM” value is recorded as 91% and the midpoint of inhibition, the IC50, lay at 0.9 nM.

As to `Cc1cc(C)c(C2=C(c3ccc(C=C4CN(CCCF)C4)cc3)c3ccc(C(=O)O)cc3CCC2)c(F)c1` [Compound 76, 8-(2-fluoro-4,6-dimethylphenyl)-9-(4-((1-(3-fluoropropyl)azetidin-3-ylidene)methyl)phenyl)-6,7-dihydro-5H-benzo[7]annulene-3-carboxylic acid], the “% Degradation At 0.3 μM” value is 95% and half-maximal inhibition (IC50) required 0.2 nM.

On to `O=C(O)c1ccc2c(c1)CCCC(C1CC13CCC3)=C2c1ccc(C=C2CN(CCCF)C2)cc1` (single isomer, unassigned) [Compound 36, 9-(4-((1-(3-fluoropropyl)azetidin-3-ylidene)methyl)phenyl)-8-(spiro[2.3]hexan-1-yl)-6,7-dihydro-5H-benzo[7]annulene-3-carboxylic acid], for which the “% Degradation At 0.3 μM” value was determined as 92% and the DC50 turned out to be 0.2 nM.

Regarding `Cc1cccc(Cl)c1C1=C(c2ccc(C=C3CN(CCCF)C3)cc2)c2ccc(C(=O)O)cc2CCC1` [Compound 21, 8-(2-chloro-6-methylphenyl)-9-(4-((1-(3-fluoropropyl)azetidin-3-ylidene)methyl)phenyl)-6,7-dihydro-5H-benzo[7]annulene-3-carboxylic acid], the “% Degradation At 0.3 μM” value was 93% and the IC50 worked out at 0.5 nM.

On to `O=C(O)c1ccc2c(c1)CCCC(c1ccc(F)c(F)c1C(F)(F)F)=C2c1ccc(C=C2CN(CCCF)C2)cc1` [Compound 2, 8-(3,4-difluoro-2-(trifluoromethyl)phenyl)-9-(4-((1-(3-fluoropropyl)azetidin-3-ylidene)methyl)phenyl)-6,7-dihydro-5H-benzo[7]annulene-3-carboxylic acid], for which the “% Degradation At 0.3 μM” value came out at 90% and the IC50 turned out to be 1 nM.

In the case of `CCc1c(Cl)cccc1C1=C(c2ccc(C=C3CN(CCCF)C3)cc2)c2ccc(C(=O)O)cc2CCC1` [Compound 46, 8-(3-chloro-2-ethylphenyl)-9-(4-((1-(3-fluoropropyl)azetidin-3-ylidene)methyl)phenyl)-6,7-dihydro-5H-benzo[7]annulene-3-carboxylic acid], the “% Degradation At 0.3 μM” value is recorded as 91% and the midpoint of inhibition, the IC50, lay at 0.5 nM.

Consider `COc1cc(C(F)F)ccc1C1=C(c2ccc(C=C3CN(CCCF)C3)cc2)c2ccc(C(=O)O)cc2CCC1` [Compound 29, 8-(4-(difluoromethyl)-2-methoxyphenyl)-9-(4-((1-(3-fluoropropyl)azetidin-3-ylidene)methyl)phenyl)-6,7-dihydro-5H-benzo[7]annulene-3-carboxylic acid], for which the “% Degradation At 0.3 μM” value is listed as 93% and the IC50 is 0.6 nM.

Consider `Cc1cc(C)c(C2=C(c3ccc(C=C4CN(CCCF)C4)cc3)c3ccc(C(=O)O)cc3CCC2)c(C(F)(F)F)c1` [Compound 72, 8-(2,4-dimethyl-6-(trifluoromethyl)phenyl)-9-(4-((1-(3-fluoropropyl)azetidin-3-ylidene)methyl)phenyl)-6,7-dihydro-5H-benzo[7]annulene-3-carboxylic acid], for which the “% Degradation At 0.3 μM” value is recorded as 100% and the midpoint of inhibition, the IC50, lay at 0.3 nM.

Take `CCc1cc(C)cc(CC)c1C1=C(c2ccc(C=C3CN(CCCF)C3)cc2)c2ccc(C(=O)O)cc2CCC1` [Compound 80, 8-(2,6-diethyl-4-methylphenyl)-9-(4-((1-(3-fluoropropyl)azetidin-3-ylidene)methyl)phenyl)-6,7-dihydro-5H-benzo[7]annulene-3-carboxylic acid]: the “% Degradation At 0.3 μM” value is 105% and the IC50 came out at 1.2 nM.

With `Cc1c(Cl)cccc1C1=C(c2ccc(C=C3CN(CCC(F)F)C3)cc2)c2ccc(O)cc2CCC1` [Compound 42, 8-(3-chloro-2-methylphenyl)-9-(4-((1-(3,3-difluoropropyl)azetidin-3-ylidene)methyl)phenyl)-6,7-dihydro-5H-benzo[7]annulen-3-ol], the “% Degradation At 0.3 μM” value is on record as 53% and half-maximal inhibition (IC50) required 6.4 nM.

Values taken from patent publication US20250255848A1, “SUBSTITUTED 6,7-DIHYDRO-5H-BENZO[7]ANNULENE DERIVATIVES, PROCESSES FOR THEIR PREPARATION AND THERAPEUTIC USES THEREOF” (SANOFI, priority 2022, published 2025).
